Measured values reported in ChEMBL document CHEMBL1201862, “PubChem BioAssay data set” (2004).
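48-hour exposure; five concentrations; linearly interpolated endpoints. Here, GI50 denotes the concentration required for 50% inhibition of growth.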 The source made the active and inactive calls. Cut-off read from the data, not from the text of the source: active = GI50 up to about 1.1 µM and inactive = higher.

Experiments:
Assay in all cases: NCI-60 cell line screen, 48 h
[1] = tested on: A549
[2] = tested on: CCRF-CEM
[3] = tested on: DU-145
[4] = tested on: HOP-62
[5] = tested on: HT-29
[6] = tested on: Hs-578T
[7] = tested on: IGROV-1
[8] = tested on: KM12
[9] = tested on: MDA-MB-435
[10] = tested on: MDA-N
[11] = tested on: NCI-H522
[12] = tested on: OVCAR-3
[13] = tested on: SF-268
[14] = tested on: SR
[15] = tested on: T47D
[16] = tested on: UACC-62
[17] = tested on: COLO 205
[18] = tested on: HCC 2998
[19] = tested on: SF-539
[20] = tested on: MCF7

SMILES	GI50 [1]	GI50 [2]	GI50 [3]	GI50 [4]	GI50 [5]	GI50 [6]	GI50 [7]	GI50 [8]	GI50 [9]	GI50 [10]	GI50 [11]	GI50 [12]	GI50 [13]	GI50 [14]	GI50 [15]	GI50 [16]	GI50 [17]	GI50 [18]	GI50 [19]	GI50 [20]
COc1c(NC(C)=O)c2ccccc2c2ccccc12	> 100 µM (inactive)	> 100 µM (inactive)	> 100 µM (inactive)	> 100 µM (inactive)	> 100 µM (inactive)	> 100 µM (inactive)	> 100 µM (inactive)	> 100 µM (inactive)	> 100 µM (inactive)	> 100 µM (inactive)	> 100 µM (inactive)	> 100 µM (inactive)	> 100 µM (inactive)	> 100 µM (inactive)	> 100 µM (inactive)	> 100 µM (inactive)				
O=C1NC(O)n2c(=O)[nH]c(=O)n21 (stereo not given)	> 100 µM (inactive)	> 100 µM (inactive)		> 100 µM (inactive)	> 100 µM (inactive)		> 100 µM (inactive)	> 100 µM (inactive)			> 100 µM (inactive)	> 100 µM (inactive)	> 100 µM (inactive)	> 100 µM (inactive)		> 100 µM (inactive)	> 100 µM (inactive)	> 100 µM (inactive)	> 100 µM (inactive)	
CC1CCC2C(C)(C)CC3(C)CCC1C23O (stereo not given)	16.3 µM (inactive)	4.02 µM (inactive)		16.4 µM (inactive)	16.3 µM (inactive)	16.7 µM (inactive)	14.6 µM (inactive)	15.5 µM (inactive)	15.6 µM (inactive)	12.7 µM (inactive)		16.3 µM (inactive)		12.3 µM (inactive)		14.9 µM (inactive)	18.3 µM (inactive)		17.8 µM (inactive)	15.8 µM (inactive)
COc1ccc(NC(=O)CC(=O)N2N=C(N(CCC#N)c3cccc(C)c3)CC2c2ccccc2)cc1 (stereo not given)	> 100 µM (inactive)	> 100 µM (inactive)		> 100 µM (inactive)	> 100 µM (inactive)		> 100 µM (inactive)	> 100 µM (inactive)			> 100 µM (inactive)	> 100 µM (inactive)	> 100 µM (inactive)	> 100 µM (inactive)		> 100 µM (inactive)	> 100 µM (inactive)	> 100 µM (inactive)	> 100 µM (inactive)	
CCOP(=O)(OCC)C(c1ccc(F)cc1)N(C(=O)NC(F)(F)F)c1ccc(OC)cc1 (stereo not given)	> 100 µM (inactive)	> 100 µM (inactive)	> 100 µM (inactive)	> 100 µM (inactive)	> 100 µM (inactive)	> 100 µM (inactive)	> 100 µM (inactive)	> 100 µM (inactive)	> 100 µM (inactive)	> 100 µM (inactive)	> 100 µM (inactive)	> 100 µM (inactive)	> 100 µM (inactive)	> 100 µM (inactive)			> 100 µM (inactive)	> 100 µM (inactive)	> 100 µM (inactive)	> 100 µM (inactive)
Cc1cc(N(CCC#N)CCC#N)ccc1/C=C1N=C(/C=C\c2ccccc2)N(c2ccc(Cl)cc2)C\1=O	> 39.9 µM (inactive)	3.4 µM (inactive)	> 100 µM (inactive)	5.21 µM (inactive)	2.11 µM (inactive)	> 100 µM (inactive)	47.3 µM (inactive)	4.52 µM (inactive)		> 100 µM (inactive)	24.7 µM (inactive)	40.5 µM (inactive)	> 22 µM (inactive)	> 100 µM (inactive)	> 100 µM (inactive)	0.746 µM (active)	0.745 µM (active)	1.81 µM (inactive)	6.71 µM (inactive)	29.2 µM (inactive)
O=C1N=C2SC(=S)N=C(S)N2NC12c1ccccc1-c1ccccc12	> 10 µM (inactive)	7.78 µM (inactive)	> 10 µM (inactive)	> 10 µM (inactive)	7.01 µM (inactive)	> 10 µM (inactive)	> 10 µM (inactive)	> 10 µM (inactive)		> 10 µM (inactive)			> 10 µM (inactive)	> 10 µM (inactive)	1.38 µM (inactive)	> 10 µM (inactive)	> 10 µM (inactive)	> 10 µM (inactive)	> 10 µM (inactive)	6.81 µM (inactive)
CN(C)c1ccc(/C=C2\C[C@H]3[C@@H]4CCC5=CC(=O)CC[C@]5(C)[C@H]4CC[C@]3(C)C2=O)cc1	38 µM (inactive)		76.6 µM (inactive)	> 100 µM (inactive)	23.9 µM (inactive)	38.4 µM (inactive)	63.1 µM (inactive)	72.1 µM (inactive)		19.5 µM (inactive)		88.1 µM (inactive)	46.3 µM (inactive)	17.7 µM (inactive)	17.4 µM (inactive)	20 µM (inactive)	21.7 µM (inactive)		28.7 µM (inactive)	21.8 µM (inactive)
Clc1ccc(C2=NOC(C3CCCCC3)C2)cc1 (stereo not given)	> 100 µM (inactive)	> 100 µM (inactive)		> 100 µM (inactive)	> 100 µM (inactive)		> 100 µM (inactive)	> 100 µM (inactive)			> 100 µM (inactive)	> 100 µM (inactive)	> 100 µM (inactive)	> 100 µM (inactive)		> 100 µM (inactive)	> 100 µM (inactive)	> 100 µM (inactive)	> 100 µM (inactive)	
O=C1CCCc2c(O)ccc(O)c21	> 100 µM (inactive)	19.1 µM (inactive)		> 100 µM (inactive)	> 100 µM (inactive)		> 100 µM (inactive)	> 100 µM (inactive)			12.6 µM (inactive)	> 100 µM (inactive)	48.5 µM (inactive)	28.3 µM (inactive)		> 100 µM (inactive)	> 100 µM (inactive)	> 100 µM (inactive)	> 100 µM (inactive)	
O=C(Nc1ccc(Cl)cc1C(F)(F)F)C(=O)Nn1c(S)nc2ccccc2c1=O	> 100 µM (inactive)	59.8 µM (inactive)		> 100 µM (inactive)	> 100 µM (inactive)	> 100 µM (inactive)		> 100 µM (inactive)	> 100 µM (inactive)	> 100 µM (inactive)		> 100 µM (inactive)	> 100 µM (inactive)		> 100 µM (inactive)	> 100 µM (inactive)		> 100 µM (inactive)	> 100 µM (inactive)	> 100 µM (inactive)
COC(=O)c1c2c(c(-c3ccccc3)c3c1-c1nc(Cl)ccc1CC3)CCc1ccc(Cl)nc1-2	> 100 µM (inactive)	> 100 µM (inactive)		> 100 µM (inactive)	> 100 µM (inactive)		> 100 µM (inactive)	> 100 µM (inactive)			77.1 µM (inactive)	> 100 µM (inactive)	78.5 µM (inactive)	> 100 µM (inactive)		71.6 µM (inactive)	> 100 µM (inactive)	> 100 µM (inactive)	45.5 µM (inactive)	
Clc1ccccc1CN1COc2c(cc(Cl)c3cccnc23)C1	3.35 µM (inactive)		7.19 µM (inactive)	3.05 µM (inactive)	19.2 µM (inactive)	4.62 µM (inactive)	5.55 µM (inactive)	3.03 µM (inactive)	6.19 µM (inactive)		3.4 µM (inactive)	6.59 µM (inactive)	5.18 µM (inactive)	0.439 µM (active)	6.05 µM (inactive)	1.52 µM (inactive)	19 µM (inactive)		2.69 µM (inactive)	4.94 µM (inactive)
CCOC(=O)N(NC(=O)NC(C)C)c1ccccc1	> 100 µM (inactive)	> 100 µM (inactive)		> 100 µM (inactive)	> 100 µM (inactive)	> 100 µM (inactive)	> 100 µM (inactive)	> 100 µM (inactive)		> 100 µM (inactive)		> 100 µM (inactive)		> 100 µM (inactive)		> 100 µM (inactive)	> 100 µM (inactive)	84.1 µM (inactive)	> 100 µM (inactive)	> 100 µM (inactive)
CNC(=O)OCC1=C(COC(=O)NC)C(C)N(c2ccc(OC)cc2)C1 (stereo not given)	> 100 µM (inactive)	47.2 µM (inactive)	> 100 µM (inactive)	40.3 µM (inactive)	64.9 µM (inactive)	> 100 µM (inactive)	29 µM (inactive)	> 100 µM (inactive)	> 100 µM (inactive)			43 µM (inactive)	> 100 µM (inactive)	15.7 µM (inactive)	37.1 µM (inactive)	15.3 µM (inactive)	59 µM (inactive)		59.8 µM (inactive)	50.6 µM (inactive)
O=C1CCc2nc3ncccc3cc2C1	> 100 µM (inactive)	30.5 µM (inactive)		> 100 µM (inactive)			58.2 µM (inactive)		44 µM (inactive)	63.5 µM (inactive)	22.2 µM (inactive)	47.2 µM (inactive)	51.8 µM (inactive)		> 100 µM (inactive)		> 100 µM (inactive)	> 100 µM (inactive)		
COc1cc2cc3c4c(cc(OC)c(OC)c4c2cc1OC)CCN3C(=O)OCCN1CCNCC1	18.5 µM (inactive)	18.4 µM (inactive)		17.1 µM (inactive)	12.6 µM (inactive)		17.3 µM (inactive)	15.1 µM (inactive)			16.6 µM (inactive)	15.3 µM (inactive)	11.1 µM (inactive)	11.2 µM (inactive)		14.9 µM (inactive)	8.22 µM (inactive)	16.1 µM (inactive)	15.1 µM (inactive)	
O=C1CC(S(=O)(=O)O)C=C1Nc1cccc(Cl)c1 (stereo not given)	> 100 µM (inactive)	> 100 µM (inactive)		> 100 µM (inactive)	> 100 µM (inactive)		> 100 µM (inactive)	> 100 µM (inactive)			> 100 µM (inactive)	> 100 µM (inactive)	> 100 µM (inactive)	> 100 µM (inactive)		> 100 µM (inactive)	> 100 µM (inactive)	> 100 µM (inactive)	> 100 µM (inactive)	
